Peptide text beside a SMILES is read from it.
How the values were obtained:
Human erythrocytes = experiment: Hemolytic test, human erythrocytes; format: cell-based; conditions: human erythrocytes in PBS, 1 h, 37°C, absorbance 550 nm; no death at 10 µM; 3 independent experiments in triplicate
Method: (§1) Blood from a mouse or healthy adult donor was centrifuged at 800 × g for 10 minutes at 4°C. The pellet containing red blood cells was then washed three times in 10 volumes of PBS and was diluted in 4% (v/v) in PBS. Blood and peptides at different concentrations were then incubated at 37°C for one hour. Cells were centrifuged 1500 × g for 5 minutes at room temperature. Hemolysis was measured in the supernatant at 550 nm. Red blood cells lysed with 1% Triton X-100 was used as a control, achieving 100% hemolysis. Percent hemolysis was calculated using the following formula: % hemolysis = 100% × [(A − A0)/(At − A0)], where A represents the absorbance of the peptide sample at 550 nm and A0 and At represent 0% and 100% hemolysis determined in 10 mM PBS and 0.1% Triton X-100, respectively.

Mouse erythrocytes = experiment: Hemolytic test, mouse erythrocytes; format: cell-based; conditions: mouse erythrocytes in PBS, 1 h, absorbance 550 nm; no death at 10 µM; 3 independent experiments in triplicate
Method: as §1

[1] = test system: Human primary epithelial cells; experiment: Cytotoxic assay on human primary epithelial cells; format: cell-based; conditions: 2 h, 37°C, flow cytometry, no death at 10 µM
Excerpt: (§2) Human leukocytes were provided by the « Banco de Sangre del Hospital Regional del IMSS » and the Centro Estatal de la Transfusión Sanguínea in Cuernavaca, Morelos, Mexico. Institutional committees approved the acquisition and isolation of human peripheral blood leukocytes. Human leukocytes and erythrocytes were obtained as previously described. Mouse bone marrow cells (MBMCs) and erythrocytes were obtained from C57BL/6 or Balb/c mice. Mouse epithelial cells were isolated from C57Bl/6 mice, and human epithelial cells were recovered from surgery residues. In brief, intestinal tissues were minced and digested in 450-U/mL collagenase I, 125-U/mL collagenase XI, 60-U/mL hyaluronidase, and 60-U/mL DNAse for 1 hour before gradient density centrifugation on Histopaque-1083 (Sigma-Aldrich, St. Louis, MO). […]
(§3) 5.10^5 mouse or human leukocytes or primary epithelial cells, A549 or Jurkat E6-1 cells, were incubated in 100 µl RPMI or DMEM containing 0.5% BSA and […] with the peptides at different concentrations for 2 hours at 37°C, 5% CO2. […] Viability of leukocytes and Jurkat cells was determined by adding a viability dye (eFluor 780) and counted by FacsCanto flow cytometry with a predetermined number of beads (Polybead, Carboxylate Microspheres, Polysciences, Inc., Le Perray-en-Yvelines, France) added to the samples. […] Data were analyzed with FlowJo.

[2] = test system: Mouse primary epithelial cells; experiment: Cytotoxic assay on mouse primary epithelial cells; format: cell-based; conditions: 2 h, 37°C, flow cytometry, no death at 10 µM
Excerpt: as §2, §3

A549 cells = experiment: A549 viability, CCK8 assay; format: cell-based, human; conditions: A549, 1 h, 37°C, duplicate, no death at 10 µM
Excerpt: Human leukocytes were provided by the « Banco de Sangre del Hospital Regional del IMSS » and the Centro Estatal de la Transfusión Sanguínea in Cuernavaca, Morelos, Mexico. Institutional committees approved the acquisition and isolation of human peripheral blood leukocytes. Human leukocytes and erythrocytes were obtained as previously described. Mouse bone marrow cells (MBMCs) and erythrocytes were obtained from C57BL/6 or Balb/c mice. Mouse epithelial cells were isolated from C57Bl/6 mice, and human epithelial cells were recovered from surgery residues. In brief, intestinal tissues were minced and digested in 450-U/mL collagenase I, 125-U/mL collagenase XI, 60-U/mL hyaluronidase, and 60-U/mL DNAse for 1 hour before gradient density centrifugation on Histopaque-1083 (Sigma-Aldrich, St. Louis, MO). A549 cells (ATCC CCL-185), a human lung carcinoma cell line, were cultivated at 37°C in a humid atmosphere and 5% CO2, with DMEM advanced medium (Gibco®) supplemented with 5% of fetal bovine serum (FBS), 2 mM of glutamine, 100 U of penicillin, and 50 μg/mL of streptomycin (Gibco®). Jurkat E6-1 cells were cultured in an RPMI medium supplemented with 5% fetal bovine serum.
For the cell line A549, viability was assessed by the CCK8 assay (DoJindo) as indicated by the manufacturer. […] The absorbance at 450 nm was measured after 3 h incubation.

[3] = In vitro peptide stability in rat serum, RP-HPLC; format: in vitro ADME; conditions: 37°C, 300 µM peptide; for degradation of the peptide: RPMI with 25% (v/v) rat serum
Method: (§4) One mL of RPMI supplemented with 25% (v/v) rat serum was equilibrated at 37°C for 15 min before adding the peptide (final concentration of 300 µM). At different time points, 300 µL of the reaction solution was removed and completed to 600 µL with 96% ethanol. The sample was cooled at 4°C for 15 min and then spun to precipitate serum proteins. The supernatant was recovered and submitted to the viability assay as described in the cytotoxic assay section or analyzed by RP-HPLC on C18–300 100 × 4, 6 mm. A linear gradient from 100% buffer A (0.1% TFA in H20) to 60% of buffer B (0.1% TFA in ACN) was used over 10 min with a flow rate of 1 mL/min. The absorbance was detected at both 220 nm and 280 nm.

mouse bone marrow cells = experiment: Cytotoxic activity of peptide recovered after serum incubation; format: cell-based; conditions: then 5 µM on mouse bone marrow cells for 2 h
Method: 5.10^5 mouse or human leukocytes or primary epithelial cells, A549 or Jurkat E6-1 cells, were incubated in 100 µl RPMI or DMEM containing 0.5% BSA and […] with the peptides at different concentrations for 2 hours at 37°C, 5% CO2. Incubation of the cells with DMSO 30% was used as a positive control. For the kinetic assay, the cells were incubated with the peptides for different time periods. Viability of leukocytes and Jurkat cells was determined by adding a viability dye (eFluor 780) and counted by FacsCanto flow cytometry with a predetermined number of beads (Polybead, Carboxylate Microspheres, Polysciences, Inc., Le Perray-en-Yvelines, France) added to the samples. Mouse leukocytes were stained with anti-mouse Ly6G-PE, anti-mouse NK1.1-PE, anti-mouse CD11b-PerCP, and anti-mouse F4/80-APC (BD Biosciences, Rungis, France). Human leukocytes were stained with anti-human CD45-PB, anti-human CD16-PE-Cy7, anti-human CD56-PE-Cy7, anti-human CD14-FITC, anti-human CD3V500, anti-human CD8-APC, and anti-human CD4-PE. Data were analyzed with FlowJo.
as §4

Row | Structure (SMILES) | toxicity for erythrocytes (hemolysis) (Human erythrocytes) | toxicity for erythrocytes (hemolysis) (Mouse erythrocytes) | toxicity for primary epithelial cells [1] | toxicity for primary epithelial cells [2] | toxicity for A549 cells (A549 cells) | time of resistance to enzymatic degradation ([3]; rat serum, title of Figure 7) [min] | Trp λmax in aqueous buffer [nm] | degradation of the peptide ([3]; 24 h, RP-HPLC, UV 220 nm) | degradation of the peptide ([3]; after 30 min, RP-HPLC C18, UV 220 nm, intact peak area vs sum of all peptide areas, n = 3 independent experiments) [%] | percentage of dead cells versus t0 peptide (mouse bone marrow cells; peptide (300 µM) pre-incubated with serum 15 min (t15), flow cytometry) | percentage of dead cells versus t0 peptide (mouse bone marrow cells; peptide pre-incubated with serum 30 min (t30)) | induction of cell death (mouse bone marrow cells; peptide pre-incubated with serum 24 h (t24))
1 | CSCC[C@H](NC(=O)[C@H](CC(N)=O)NC(=O)[C@@H](NC(=O)[C@@H](NC(=O)[C@H](C)NC(=O)[C@H](CC(N)=O)NC(=O)[C@H](CC(C)C)NC(=O)[C@@H](NC(=O)[C@H](C)NC(=O)[C@H](CCCCN)NC(=O)CNC(=O)[C@H](C)NC(=O)[C@@H](NC(=O)[C@H](CCCCN)NC(=O)CNC(=O)[C@@H](NC(=O)[C@H](CCCCN)NC(=O)[C@H](CCCCN)NC(=O)[C@H](CC(C)C)NC(=O)[C@H](CC(C)C)NC(=O)[C@@H](NC(=O)[C@H](CCCCN)NC(=O)[C@H](Cc1c[nH]c2ccccc12)NC(=O)[C@H](CC(C)C)NC(=O)[C@H](C)N)[C@@H](C)O)C(C)C)C(C)C)C(C)C)C(C)C)[C@@H](C)O)C(=O)N[C@@H](C)C(=O)N[C@@H](CC(N)=O)C(=O)N[C@@H](CCC(N)=O)C(=O)N[C@@H](CC(N)=O)C(=O)N[C@@H](CCC(=O)O)C(=O)N[C@@H](CCC(N)=O)C(=O)O [DRS-DA2NEQ] (H-ALWKTLLKKVGKVAGKAVLNAVTNMANQNEQ-OH) | not toxic | not toxic | not toxic | not toxic | not toxic | 15 | 355 |  |  |  |  | 
2 | CSCC[C@H](NC(=O)[C@H](CC(N)=O)NC(=O)[C@@H](NC(=O)[C@@H](NC(=O)[C@H](C)NC(=O)[C@H](CC(N)=O)NC(=O)[C@H](CC(C)C)NC(=O)[C@@H](NC(=O)[C@H](C)NC(=O)[C@H](CCCCN)NC(=O)CNC(=O)[C@H](C)NC(=O)[C@@H](NC(=O)[C@H](CCCCN)NC(=O)CNC(=O)[C@@H](NC(=O)[C@H](CCCCN)NC(=O)[C@H](CCCCN)NC(=O)[C@H](CC(C)C)NC(=O)[C@H](CC(C)C)NC(=O)[C@@H](NC(=O)[C@H](CCCCN)NC(=O)[C@H](Cc1c[nH]c2ccccc12)NC(=O)[C@H](CC(C)C)NC(=O)[C@H](C)N)[C@@H](C)O)C(C)C)C(C)C)C(C)C)C(C)C)[C@@H](C)O)C(=O)N[C@@H](C)C(=O)N[C@@H](CC(N)=O)C(=O)N[C@@H](CCC(N)=O)C(=O)N[C@@H](CC(N)=O)C(=O)O [DRS-DA2N] (H-ALWKTLLKKVGKVAGKAVLNAVTNMANQN-OH) | not toxic | not toxic | not toxic | not toxic | not toxic |  | 355 | totally degraded | 40 | no significant differences | started to decrease | almost completely abolished

From article PMC10799709, “Characterization of a New Immunosuppressive and Antimicrobial Peptide, DRS-DA2, Isolated from the Mexican Frog, Pachymedusa dacnicolor” (International Journal of Inflammation, 2024)
